# Test results: patent US10429397B2 (priority 2015, dated 2019)
# Test system: HeLa cells
# Assay: Fluorescence microscopy assay of cell permeability
# Type: cell-based
# Details: 5 mM, 1 hour, streptavidin-Cy5
# Procedure: The cells were then incubated in serum free media for 2 hours, followed by incubation with APB (5 mM) in serum free media (500 μL) for 1 hour. […] Cells were incubate with paraformaldehyde (4%, 500 μL) for 20 minutes at room temperature, then washed with 1×PBS (500 μL) three times. […] Streptavidin Cy5 (10 ug/mL) in blocking buffer (50 μL) was added and incubated with cells for 30 minutes. […] Cells were incubated with DAPI (100 μg/mL) for 5 minutes, followed by washing with 1×PBS (500 μL) 3 times each for 5 min. The cover slips were washed in water then installed on a glass slide containing Mowiol mounting solution (50 μL, Sigma Aldrich) saturated with DABCO (Sigma Aldrich). The slide was incubate at 31° C. for 30 minutes, and then kept at 4° C. until microscopy. Fluorescence photos were generated on an Olympus fluorescence microscope using laser wavelengths corresponding to DAPI (350 nm) and Cy5 (650 nm). DAPI photos were generated at 10 ms and Cy5 at 200 ms. Merged images were created using Adobe Photoshop.
structure (smiles),measurement,value
"Nc1ncnc2c1ncn2[C@@H]1O[C@H](COP(=O)(O)OP(=O)(O)OP(=O)(O)O)[C@@H](O)[C@H]1O [ATP, adenosine-5′-triphosphate, reference compound]",biotin fluorescence signal in cells (cell permeability),no biotin signal
